In patent US8343923B2, “Use of notch signaling regulators for modulating osteogenesis” (Washington University, priority 2007, dated 2013):

What was measured:
Type in all cases: cell-based, mouse
[1] = tested on: bone marrow mesenchymal progenitors (CFU-Fs) in wild type BMSCs; test: CFU-F assay of wild type BMSCs in the presence or absence of DAPT
Description: FIG. 8B depicts AP staining after 8 days in osteogenic medium following CFU-F assays. FIG. 8C illustrates AP quantitative assay for high-density BMSCs cultures in osteogenic medium. FIG. 8D is phase-contrast pictures of high-density BMSCs cultured in adipogenic medium. Note the lipid droplets in wild type cells. […] The arrow denotes a typical “type I” CFU-F. Cell cultures. Bone marrow harvests and high-density cultures were done as described in the art. For CFU-F assays, single-cell suspension of nucleated bone marrow cells were seeded at 3×10^6 on T25 flasks and cultured in DMEM (Invitrogen) containing 20% lot-selected FBS (Hyclone) and 1-Thioglycerol (Sigma) for 11-14 days without change of medium. For CFU-F assays, colonies with more than 50 small, round or spindle-shaped cells in direct contact with each other were scored as “type I” CFU-Fs. Clusters with more than 100 cells including large cells with multiple processes were counted as “type II” CFU-Fs. Differentiation of BMSCs was induced by either osteogenic (50 μg/ml ascorbic acid, 50 mM β-glycerol-2-phosphate) or adipogenic (0.5 μMIBMX, 60 μM indomethacine, 0.5 μM hydrocortisone) DMEM containing 10% FBS (Atlas). […] NICD was detected by Western analyses using a specific antibody (Cell Signaling). […] It was also assessed whether Notch signaling could directly control bone marrow mesenchymal progenitors and their differentiation. […]

[2] = tested on: "type II" CFU-Fs from wild type BMSCs; test: AP staining immediately following CFU-F assays; conditions: assayed directly for AP activity without further culture in osteogenic conditions; DAPT-treated samples
Protocol: FIG. 8G is representative of “type II” CFU-Fs stained for AP. FIG. 8H illustrates an AP quantitative assay for high-density wild type BMSCs cultures in osteogenic medium with or without DAPT. (*: p<0.05). Cell cultures. Bone marrow harvests and high-density cultures were done as described in the art. For CFU-F assays, single-cell suspension of nucleated bone marrow cells were seeded at 3×10^6 on T25 flasks and cultured in DMEM (Invitrogen) containing 20% lot-selected FBS (Hyclone) and 1-Thioglycerol (Sigma) for 11-14 days without change of medium. For CFU-F assays, colonies with more than 50 small, round or spindle-shaped cells in direct contact with each other were scored as “type I” CFU-Fs. Clusters with more than 100 cells including large cells with multiple processes were counted as “type II” CFU-Fs. Differentiation of BMSCs was induced by either osteogenic (50 μg/ml ascorbic acid, 50 mM β-glycerol-2-phosphate) or adipogenic (0.5 μMIBMX, 60 μM indomethacine, 0.5 μM hydrocortisone) DMEM containing 10% FBS (Atlas). Primary osteoblasts were isolated from long bones by incubating cleaned small bone chips to allow cells to migrate onto culture dishes. NICD was detected by Western analyses using a specific antibody (Cell Signaling). It was also assessed whether Notch signaling could directly control bone marrow mesenchymal progenitors and their differentiation. […]

wild type BMSCs = test: AP quantitative assay for high-density wild type BMSCs cultures in osteogenic medium; conditions: wild type BMSCs at higher density under osteogenic conditions, with versus without DAPT; p<0.05
Protocol: FIG. 8G is representative of “type II” CFU-Fs stained for AP. FIG. 8H illustrates an AP quantitative assay for high-density wild type BMSCs cultures in osteogenic medium with or without DAPT. (*: p<0.05).
Cell cultures. Bone marrow harvests and high-density cultures were done as described in the art. For CFU-F assays, single-cell suspension of nucleated bone marrow cells were seeded at 3×10^6 on T25 flasks and cultured in DMEM (Invitrogen) containing 20% lot-selected FBS (Hyclone) and 1-Thioglycerol (Sigma) for 11-14 days without change of medium. For CFU-F assays, colonies with more than 50 small, round or spindle-shaped cells in direct contact with each other were scored as “type I” CFU-Fs. Clusters with more than 100 cells including large cells with multiple processes were counted as “type II” CFU-Fs. Differentiation of BMSCs was induced by either osteogenic (50 μg/ml ascorbic acid, 50 mM β-glycerol-2-phosphate) or adipogenic (0.5 μMIBMX, 60 μM indomethacine, 0.5 μM hydrocortisone) DMEM containing 10% FBS (Atlas). Primary osteoblasts were isolated from long bones by incubating cleaned small bone chips to allow cells to migrate onto culture dishes. NICD was detected by Western analyses using a specific antibody (Cell Signaling).
It was also assessed whether Notch signaling could directly control bone marrow mesenchymal progenitors and their differentiation. […]

## C[C@H](NC(=O)Cc1cc(F)cc(F)c1)C(=O)N[C@H](C(=O)OC(C)(C)C)c1ccccc1 [DAPT, N—[N-(3,5-Difluorophenacetyl)-L-alanyl]-S-phenylglycine t-butyl ester]
[1]; 1 μM DAPT, number not altered versus untreated
  number of "type II" CFU-Fs: ~20 per 106 marrow cells
[1]; low-density culture, 1 μM DAPT (FIG. 8 legend)
  effect on "type I" CFU-Fs: completely eliminated
[2]
  AP staining of "type II" CFU-Fs: nearly all “type II” CFU-Fs from the DAPT-treated samples stained strongly positive
Wild type BMSCs
  AP expression: significantly increased
